Literature values in patent publication US20040167415A1, “Method and system for prevention of radiocontrast nephropathy” (PLC Systems Inc., priority 2003, published 2004).

Assays:
[1] = 70 kg adult patient; according to the manufacturer Nycomed Amersham
[2] = in 12 hours; healthy people; Edelson et al, J Pharm Sci 1984

- total volume of distribution [1]: approximately 18 liters
- contrast eliminated from the body in urine by kidneys [2]: 90%
SMILES: CC(=O)N(CC(O)CO)c1c(I)c(C(=O)NCC(O)CO)c(I)c(C(=O)NCC(O)CO)c1I (centres unmarked) [iohexol]
